Assay results from paper PMC7059199, “Identification and structural insight of an effective PPARγ modulator with improved therapeutic index for anti-diabetic drug discovery” (Chemical Science, 2020).
Entries after “also recorded” stand apart in the source; their conditions may differ.

Columns and labels:
[1] = molecular target: hERG potassium ion channel (Homo sapiens, UniProt Q12809); assay: Inhibition assay on the hERG potassium ion channel
3T3-L1 cells = assay: qPCR of adipogenic genes in 3T3-L1 cells; type: cell-based, mouse; conditions: 7 days after treatment
Experimental: Encouraged by the above results and to further determine whether VSP-77 activates PPARγ in 3T3-L1 cells, we evaluated the ability of VSP-77 to stimulate PPARγ activity by measuring the mRNA levels of endogenous PPARγ-regulated downstream genes linked to adipogenesis (primers are listed in Table S1 ^†).
Fig. 7 Expression of adipogenic genes in 3T3-L1 cells was analyzed by quantitative PCR (qPCR). Relative mRNA levels of the adipocyte differentiation genes PPARγ, aP2, CD36, LPL, C/EBPα and Fasn. mRNA was extracted from differentiating cells 7 days after treatment (n = 3, error bars = SEM). […]
(average±standard deviation calculated from three separate experiments). […]
Cells were stained with Oil Red O to estimate the lipid accumulation. The images were analyzed using ImageJ (National Institutes of Health).
For real-time PCR analysis, 1-2 μg total RNA was reverse-transcribed using the SuperScript cDNA Reverse Transcription Kit (Invitrogen) with SYBR Green PCR Master Mix (Invitrogen) and gene specific primers (Table S1) using a Roche Light Cycler 480 machine. The relative expression of mRNA was determined after normalization to β-actin level using the ΔΔ-Ct method. […]

PPARα = molecular target: T1, PPARα (Homo sapiens, UniProt Q07869); assay: Competitive TR-FRET assay, PPARα; conditions: even at 100 μM
T1 sequence (Q07869 1-468): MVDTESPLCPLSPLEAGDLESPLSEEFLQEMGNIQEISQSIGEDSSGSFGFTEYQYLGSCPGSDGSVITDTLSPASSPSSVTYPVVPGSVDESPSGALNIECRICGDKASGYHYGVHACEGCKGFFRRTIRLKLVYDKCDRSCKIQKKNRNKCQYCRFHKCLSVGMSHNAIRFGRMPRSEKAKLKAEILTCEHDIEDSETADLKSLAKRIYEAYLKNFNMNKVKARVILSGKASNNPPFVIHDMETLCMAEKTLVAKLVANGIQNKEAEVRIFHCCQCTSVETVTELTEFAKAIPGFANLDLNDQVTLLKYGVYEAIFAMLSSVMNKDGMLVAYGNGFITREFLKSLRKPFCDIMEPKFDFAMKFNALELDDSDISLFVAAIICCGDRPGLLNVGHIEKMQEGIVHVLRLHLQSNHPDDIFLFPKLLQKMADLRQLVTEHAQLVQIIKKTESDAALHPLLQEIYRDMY

Chain of hERG potassium ion channel (Q12809 whole entry): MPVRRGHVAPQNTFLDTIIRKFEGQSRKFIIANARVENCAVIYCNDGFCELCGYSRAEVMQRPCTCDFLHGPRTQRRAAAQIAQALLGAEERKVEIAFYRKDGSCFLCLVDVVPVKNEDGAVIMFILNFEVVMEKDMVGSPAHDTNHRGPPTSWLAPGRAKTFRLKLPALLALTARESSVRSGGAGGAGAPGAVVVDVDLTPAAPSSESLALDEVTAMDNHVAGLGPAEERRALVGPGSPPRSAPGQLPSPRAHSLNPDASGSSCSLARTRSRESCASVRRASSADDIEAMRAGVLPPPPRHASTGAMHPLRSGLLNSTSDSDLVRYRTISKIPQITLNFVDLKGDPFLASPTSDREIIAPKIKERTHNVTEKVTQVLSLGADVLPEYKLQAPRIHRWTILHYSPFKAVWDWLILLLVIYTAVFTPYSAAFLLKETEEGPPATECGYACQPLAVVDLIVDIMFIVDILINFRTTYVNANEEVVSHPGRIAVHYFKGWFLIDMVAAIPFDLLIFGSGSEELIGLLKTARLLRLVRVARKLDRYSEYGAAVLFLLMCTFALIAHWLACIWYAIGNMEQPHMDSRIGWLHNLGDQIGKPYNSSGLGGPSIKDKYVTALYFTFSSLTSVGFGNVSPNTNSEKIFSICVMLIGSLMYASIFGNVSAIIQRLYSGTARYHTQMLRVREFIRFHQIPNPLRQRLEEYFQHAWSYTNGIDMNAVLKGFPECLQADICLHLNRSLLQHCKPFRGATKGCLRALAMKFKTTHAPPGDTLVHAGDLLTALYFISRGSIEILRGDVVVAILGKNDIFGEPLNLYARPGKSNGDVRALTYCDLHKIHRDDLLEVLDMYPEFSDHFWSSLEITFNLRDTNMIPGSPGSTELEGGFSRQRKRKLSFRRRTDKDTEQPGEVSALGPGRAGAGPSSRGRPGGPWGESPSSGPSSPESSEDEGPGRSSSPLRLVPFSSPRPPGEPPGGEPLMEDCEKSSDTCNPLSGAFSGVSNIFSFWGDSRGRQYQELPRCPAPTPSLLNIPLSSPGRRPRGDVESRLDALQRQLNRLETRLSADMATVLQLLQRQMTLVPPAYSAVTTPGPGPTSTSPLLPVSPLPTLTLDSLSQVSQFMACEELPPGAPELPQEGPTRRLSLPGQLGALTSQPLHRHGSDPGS

## CCCCCCCC(OCC(=O)O)c1ccc(Cl)cc1 (stereo not shown) [VSP-77]
[1]
  IC50: > 50 µM
[1]; even at 50 μM
  hERG inhibition (in words): no obvious inhibition; also recorded: no detectable hERG inhibition
3T3-L1 cells
  expression of adipogenic genes PPARγ, aP2, CD36, LPL, C/EBPα and Fasn (mRNA): only weakly stimulated
PPARα
  effect on PPARα (in words): no obvious effects
